Read-outs that look alike come from different tables or passages of the source.
Experiments:
[1] = test system: Key Broadleaf Weed and Crop Species; assay: Post-emergent Test II herbicidal activity (Table 5); assay type: in vivo; details: post-emergence, 336 h, 14 days after application; for pest or weed control at 70 g/ha: application rate 70 g ai/ha; for pest or weed control at 140 g/ha: application rate 140 g ai/ha
Method in brief: (§1)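 Post-emergence foliar spray, 187 L/ha, track sprayer at 43 cm above canopy. Carrier: acetone/water/IPA/DMSO/Atplus 411F/Triton X-155. Plants at 1st–2nd true leaf; subirrigated afterwards; % injury scored visually at 14 d.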

[2] = test system: Key Grass and Sedge Weeds as well as Grass Crops; assay: Post-emergent Test II herbicidal activity (Table 6); assay type: in vivo; details: post-emergence, 336 h
Method in brief: as §1

[3] = ABUTH: velvetleaf (Abutilon theophrasti), read-out: Visual Growth Reduction (%) 14 Days After Application, ABUTH
[4] = AMARE: redroot pigweed (Amaranthus retroflexus), read-out: Visual Growth Reduction (%) 14 Days After Application, AMARE
[5] = BRSNN: oilseed-rape, canola (Brassica napus), read-out: Visual Growth Reduction (%) 14 Days After Application, BRSNN
[6] = CHEAL: lambsquarters (Chenopodium album), read-out: Visual Growth Reduction (%) 14 Days After Application, CHEAL
[7] = EPHHL: wild poinsettia (Euphorbia heterophylla), read-out: Visual Growth Reduction (%) 14 Days After Application, EPHHL
[8] = HELAN: sunflower (Helianthus annuus), read-out: Visual Growth Reduction (%) 14 Days After Application, HELAN
[9] = VIOTR: wild pansy (Viola tricolor), read-out: Visual Growth Reduction (%) 14 Days After Application, VIOTR

Which pest or weed control at 70 g/ha [1, 3] does the source give for C#Cc1ccc(-c2nc(N)c(OC)c(C(=O)O)n2)c(F)c1F [Compound 154] here?
Its pest or weed control at 70 g/ha is 0 to 29%.

And the pest or weed control at 140 g/ha [1, 3]?
The pest or weed control at 140 g/ha was 45 to 59%.

What about the pest or weed control at 70 g/ha [1, 4] of the same compound?
The pest or weed control at 70 g/ha was 0 to 29%.

And the pest or weed control at 140 g/ha [1, 4]?
The pest or weed control at 140 g/ha was 0 to 29%.

What about the pest or weed control at 70 g/ha [1, 5] of the same compound?
The pest or weed control at 70 g/ha was 0 to 29%.

And the pest or weed control at 140 g/ha [1, 5]?
The pest or weed control at 140 g/ha was 60 to 74%.

And the pest or weed control at 70 g/ha [1, 6]?
Its pest or weed control at 70 g/ha is 0 to 29%.

What about the pest or weed control at 140 g/ha [1, 6] of the same compound?
The pest or weed control at 140 g/ha was 45 to 59%.

And the pest or weed control at 70 g/ha [1, 7]?
Its pest or weed control at 70 g/ha is 95 to 100%.

And the pest or weed control at 140 g/ha [1, 7]?
Its pest or weed control at 140 g/ha is 95 to 100%.

What about the pest or weed control at 70 g/ha [1, 8] of the same compound?
Its pest or weed control at 70 g/ha is 75 to 84%.

What about the pest or weed control at 140 g/ha [1, 8] of the same compound?
Its pest or weed control at 140 g/ha is 75 to 84%.

And the pest or weed control at 70 g/ha [1, 9]?
The pest or weed control at 70 g/ha was 0 to 29%.

And the pest or weed control at 140 g/ha [1, 9]?
The pest or weed control at 140 g/ha was 0 to 29%.

What about the pest or weed control at 70 g/ha ([2]; Triticum aestivum, TRZSS (wheat), application rate 70 g ai/ha, read-out: Visual Growth Reduction (%) 14 Days After Application, TRZSS) of the same compound?
Its pest or weed control at 70 g/ha is 0 to 29%.

What about the pest or weed control at 140 g/ha ([2]; Triticum aestivum, TRZSS (wheat), application rate 140 g ai/ha, read-out: Visual Growth Reduction (%) 14 Days After Application, TRZSS) of the same compound?
The pest or weed control at 140 g/ha was 0 to 29%.

And the pest or weed control at 70 g/ha ([2]; CYPES: yellow nutsedge (Cyperus esculentus), application rate 70 g ai/ha, read-out: Visual Growth Reduction (%) 14 Days After Application, CYPES)?
Its pest or weed control at 70 g/ha is 0 to 29%.

What about the pest or weed control at 140 g/ha ([2]; CYPES: yellow nutsedge (Cyperus esculentus), application rate 140 g ai/ha, read-out: Visual Growth Reduction (%) 14 Days After Application, CYPES) of the same compound?
The pest or weed control at 140 g/ha was 0 to 29%.

What about the pest or weed control at 70 g/ha ([2]; DIGSA: crabgrass (Digitaria sanguinalis), application rate 70 g ai/ha, read-out: Visual Growth Reduction (%) 14 Days After Application, DIGSA) of the same compound?
Its pest or weed control at 70 g/ha is 0 to 29%.

And the pest or weed control at 140 g/ha ([2]; DIGSA: crabgrass (Digitaria sanguinalis), application rate 140 g ai/ha, read-out: Visual Growth Reduction (%) 14 Days After Application, DIGSA)?
Its pest or weed control at 140 g/ha is 0 to 29%.

And the pest or weed control at 70 g/ha ([2]; ECHCG: barnyardgrass (Echinochloa crus-galli), application rate 70 g ai/ha, read-out: Visual Growth Reduction (%) 14 Days After Application, ECHCG)?
Its pest or weed control at 70 g/ha is 45 to 59%.

What about the pest or weed control at 140 g/ha ([2]; ECHCG: barnyardgrass (Echinochloa crus-galli), application rate 140 g ai/ha, read-out: Visual Growth Reduction (%) 14 Days After Application, ECHCG) of the same compound?
Its pest or weed control at 140 g/ha is 45 to 59%.

What about the pest or weed control at 70 g/ha ([2]; ORYSA: rice (Oryza sativa), application rate 70 g ai/ha, read-out: Visual Growth Reduction (%) 14 Days After Application, ORYSA) of the same compound?
The pest or weed control at 70 g/ha was 0 to 29%.

And the pest or weed control at 140 g/ha ([2]; ORYSA: rice (Oryza sativa), application rate 140 g ai/ha, read-out: Visual Growth Reduction (%) 14 Days After Application, ORYSA)?
Its pest or weed control at 140 g/ha is 0 to 29%.

What about the pest or weed control at 70 g/ha ([2]; SETFA: giant foxtail (Setaria faberi), application rate 70 g ai/ha, read-out: Visual Growth Reduction (%) 14 Days After Application, SETFA) of the same compound?
Its pest or weed control at 70 g/ha is 0 to 29%.

And the pest or weed control at 140 g/ha ([2]; SETFA: giant foxtail (Setaria faberi), application rate 140 g ai/ha, read-out: Visual Growth Reduction (%) 14 Days After Application, SETFA)?
Its pest or weed control at 140 g/ha is 0 to 29%.

What about the pest or weed control at 70 g/ha ([2]; SORVU: grain sorghum (Sorghum vulgare), application rate 70 g ai/ha, read-out: Visual Growth Reduction (%) 14 Days After Application, SORVU) of the same compound?
Its pest or weed control at 70 g/ha is 0 to 29%.

What about the pest or weed control at 140 g/ha ([2]; SORVU: grain sorghum (Sorghum vulgare), application rate 140 g ai/ha, read-out: Visual Growth Reduction (%) 14 Days After Application, SORVU) of the same compound?
The pest or weed control at 140 g/ha was 0 to 29%.

What about the pest or weed control at 70 g/ha ([2]; ZEAMX: maize, corn (Zea mays), application rate 70 g ai/ha, read-out: Visual Growth Reduction (%) 14 Days After Application, ZEAMX) of the same compound?
Its pest or weed control at 70 g/ha is 0 to 29%.

And the pest or weed control at 140 g/ha ([2]; ZEAMX: maize, corn (Zea mays), application rate 140 g ai/ha, read-out: Visual Growth Reduction (%) 14 Days After Application, ZEAMX)?
The pest or weed control at 140 g/ha was 0 to 29%.

And the melting point?
The melting point was 142 to 144 °C.

Which results are given for Nc1c(F)c(-c2ccc(I)c(F)c2)nc(C(=O)O)c1Cl [Compound 157]?
pest or weed control at 70 g/ha [1, 3]: 85 to 94%; pest or weed control at 140 g/ha [1, 3]: 85 to 94%; pest or weed control at 70 g/ha [1, 4]: 95 to 100%; pest or weed control at 140 g/ha [1, 4]: 95 to 100%; pest or weed control at 70 g/ha [1, 5]: 95 to 100%; pest or weed control at 140 g/ha [1, 5]: 95 to 100%; pest or weed control at 70 g/ha [1, 6]: 95 to 100%; pest or weed control at 140 g/ha [1, 6]: 95 to 100%; pest or weed control at 70 g/ha [1, 7]: 95 to 100%; pest or weed control at 140 g/ha [1, 7]: 95 to 100%; pest or weed control at 70 g/ha [1, 8]: 95 to 100%; pest or weed control at 140 g/ha [1, 8]: 95 to 100%; pest or weed control at 70 g/ha [1, 9]: 95 to 100%; pest or weed control at 140 g/ha [1, 9]: 95 to 100%; pest or weed control at 70 g/ha ([2]; CYPES: yellow nutsedge (Cyperus esculentus), 70 g ai/ha, read-out: Visual Growth Reduction (%) 14 Days After Application, CYPES): 45 to 59%; pest or weed control at 140 g/ha ([2]; CYPES: yellow nutsedge (Cyperus esculentus), 140 g ai/ha, read-out: Visual Growth Reduction (%) 14 Days After Application, CYPES): 45 to 59%; pest or weed control at 70 g/ha ([2]; DIGSA: crabgrass (Digitaria sanguinalis), 70 g ai/ha, read-out: Visual Growth Reduction (%) 14 Days After Application, DIGSA): 75 to 84%; pest or weed control at 140 g/ha ([2]; DIGSA: crabgrass (Digitaria sanguinalis), 140 g ai/ha, read-out: Visual Growth Reduction (%) 14 Days After Application, DIGSA): 85 to 94%; pest or weed control at 70 g/ha ([2]; ECHCG: barnyardgrass (Echinochloa crus-galli), 70 g ai/ha, read-out: Visual Growth Reduction (%) 14 Days After Application, ECHCG): 95 to 100%; pest or weed control at 140 g/ha ([2]; ECHCG: barnyardgrass (Echinochloa crus-galli), 140 g ai/ha, read-out: Visual Growth Reduction (%) 14 Days After Application, ECHCG): 95 to 100%; pest or weed control at 70 g/ha ([2]; ORYSA: rice (Oryza sativa), crop, 70 g ai/ha, read-out: Visual Growth Reduction (%) 14 Days After Application, ORYSA): 0 to 29%; pest or weed control at 140 g/ha ([2]; ORYSA: rice (Oryza sativa), crop, 140 g ai/ha, read-out: Visual Growth Reduction (%) 14 Days After Application, ORYSA): 0 to 29%; pest or weed control at 70 g/ha ([2]; SETFA: giant foxtail (Setaria faberi), 70 g ai/ha, read-out: Visual Growth Reduction (%) 14 Days After Application, SETFA): 95 to 100%; pest or weed control at 140 g/ha ([2]; SETFA: giant foxtail (Setaria faberi), 140 g ai/ha, read-out: Visual Growth Reduction (%) 14 Days After Application, SETFA): 95 to 100%; pest or weed control at 70 g/ha ([2]; SORVU: grain sorghum (Sorghum vulgare), 70 g ai/ha, read-out: Visual Growth Reduction (%) 14 Days After Application, SORVU): 85 to 94%; pest or weed control at 140 g/ha ([2]; SORVU: grain sorghum (Sorghum vulgare), 140 g ai/ha, read-out: Visual Growth Reduction (%) 14 Days After Application, SORVU): 95 to 100%; pest or weed control at 70 g/ha ([2]; TRZSS (wheat, Triticum aestivum), crop, 70 g ai/ha, read-out: Visual Growth Reduction (%) 14 Days After Application, TRZSS): 45 to 59%; pest or weed control at 140 g/ha ([2]; TRZSS (wheat, Triticum aestivum), crop, 140 g ai/ha, read-out: Visual Growth Reduction (%) 14 Days After Application, TRZSS): 45 to 59%; pest or weed control at 70 g/ha ([2]; ZEAMX: maize, corn (Zea mays), crop, 70 g ai/ha, read-out: Visual Growth Reduction (%) 14 Days After Application, ZEAMX): 95 to 100%; pest or weed control at 140 g/ha ([2]; ZEAMX: maize, corn (Zea mays), crop, 140 g ai/ha, read-out: Visual Growth Reduction (%) 14 Days After Application, ZEAMX): 95 to 100%; melting point: 140 to 150 °C (dec.)

Source: US9113629B2, “4-amino-6-(4-substituted-phenyl)-picolinates and 6-amino-2-(4-substituted-phenyl)-pyrimidine-4-carboxylates and their use as herbicides” (DOW AGROSCIENCES LLC, priority 2013, dated 2015)
